Measurements from patent US20210045385A1, “PYRIDAZINONE-SUBSTITUTED KETOXIMES AS HERBICIDES” (FMC Corporation, priority 2018, published 2021).

Legend:
Format in all cases: in vivo
[1] = tested on: barnyardgrass (Echinochloa crus-galli); assay: Test C preemergence, visual plant response rating
How it was run: (§1)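 Compounds in a non-phytotoxic solvent with surfactant were applied as a directed soil spray preemergence or to 2–10 cm, one- to two-leaf plants postemergence, in loam–sand soil. After about 10 d in a greenhouse, injury was visually rated against untreated controls on a 0–100 scale (100 = complete control).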

kochia (Bassia scoparia) [2] = assay: Test C preemergence, visual plant response rating
How it was run: as §1

[3] = tested on: Italian ryegrass (Lolium mutiflorum); assay: Test C preemergence, visual plant response rating
How it was run: as §1

[4] = tested on: pigweed (Amaranthus retroflexus); assay: Test C preemergence, visual plant response rating
How it was run: as §1

[5] = tested on: foxtail, giant (giant foxtail, Setaria faberi); assay: Test C preemergence, visual plant response rating
How it was run: as §1

[6] = tested on: wheat (Triticum aestivum); assay: Test C postemergence, visual plant response rating
Source text: (§2) Seeds of plant species selected from barnyardgrass (Echinochloa crus-galli), kochia (Bassia scoparia), ragweed (common ragweed, Ambrosia artemisiifolia), Italian ryegrass (Lolium mutiflorum), foxtail, giant (giant foxtail, Setaria faberi), foxtail, green (green foxtail, Setaria viridis), and pigweed (Amaranthus retroflexus) were planted into a blend of loam soil and sand and treated preemergence with a directed soil spray using test chemicals formulated in anon-phytotoxic solvent mixture which included a surfactant.
(§3) At the same time, plants selected from these weed species and also wheat (Triticum aestivum), corn (Zea mays), blackgrass (Alopecurus myosuroides), and galium (catchweed bedstraw, Galium aparine) were planted in pots containing the same blend of loam soil and sand and treated with post emergence applications of test chemicals formulated in the same manner. Plants ranged in height from 2 to 10 cm and were in the one- to two-leaf stage for the postemergence treatment. Treated plants and untreated controls were maintained in a greenhouse for approximately 10 d, after which time all treated plants were compared to untreated controls and visually evaluated for injury. Plant response ratings, summarized in Table C, are based on a 0 to 100 scale where 0 is no effect and 100 is complete control. A dash (-)response means no test result.

[7] = tested on: barnyardgrass (Echinochloa crus-galli); assay: Test C postemergence, visual plant response rating
Source text: as §2, §3

[8] = tested on: ragweed (common ragweed, Ambrosia artemisiifolia); assay: Test C postemergence, visual plant response rating
Source text: as §2, §3

kochia (Bassia scoparia) [9] = assay: Test C postemergence, visual plant response rating
Source text: as §2, §3

[10] = tested on: blackgrass (Alopecurus myosuroides); assay: Test C postemergence, visual plant response rating
Source text: as §2, §3

[11] = tested on: Italian ryegrass (Lolium mutiflorum); assay: Test C postemergence, visual plant response rating
Source text: as §2, §3

[12] = tested on: galium (catchweed bedstraw, Galium aparine); assay: Test C postemergence, visual plant response rating
Source text: as §2, §3

[13] = tested on: pigweed (Amaranthus retroflexus); assay: Test C postemergence, visual plant response rating
Source text: as §2, §3

[14] = tested on: foxtail, giant (giant foxtail, Setaria faberi); assay: Test C postemergence, visual plant response rating
Source text: as §2, §3

corn (Zea mays) = assay: Test C postemergence, visual plant response rating
Source text: as §2, §3

rice (Oryza sativa) = assay: Test D flooded paddy test, visual plant response rating; conditions: 250 g ai/ha, scale 0 to 100 (0 no effect, 100 complete control), 13 to 15 d
Method: (§4) Plant species in the flooded paddy test selected from rice (Oryza sativa), sedge umbrella (small-flower umbrella sedge, Cyperus difformis) duck salad (Heteranthera limosa), and barnyardgrass (Echinochloa crus-galli) were grown to the 2-leaf stage for testing. At time of treatment, test pots were flooded to 3 cm above the soil surface, treated by application of test compounds directly to the paddy water, and then maintained at that water depth for the duration of the test. Treated plants and controls were maintained in a greenhouse for 13 to 15 d, after which time all species were compared to controls and visually evaluated. Plant response ratings, summarized in Table D, are based on a scale of 0 to 100 where 0 is no effect and 100 is complete control. A dash (-) response means no test result.

[15] = tested on: sedge umbrella (small-flower umbrella sedge, Cyperus difformis); assay: as above; conditions: 250 g ai/ha, scale 0 to 100 (0 no effect, 100 complete control), 13 to 15 d
Method: as §4

[16] = tested on: barnyardgrass (Echinochloa crus-galli); assay: as above; conditions: 250 g ai/ha, scale 0 to 100 (0 no effect, 100 complete control), 13 to 15 d
Method: as §4

[17] = tested on: duck salad (Heteranthera limosa); assay: as above; conditions: 250 g ai/ha, scale 0 to 100 (0 no effect, 100 complete control), 13 to 15 d
Method: as §4

[18] = Test C, 31 g ai/ha, 0 is no effect, 100 is complete control
[19] = Test C, postemergence, 125 g ai/ha
[20] = Test C, 125 g ai/ha, 0 is no effect, 100 is complete control

SMILES | Barnyardgrass plant response rating (0 to 100 scale) [1, 18] | Kochia plant response rating (0 to 100 scale) (kochia (Bassia scoparia) [2]; [18]) | Ryegrass, Italian plant response rating (0 to 100 scale) [3, 18] | Pigweed plant response rating (0 to 100 scale) [4, 18] | Foxtail, Giant plant response rating (0 to 100 scale) [5, 18] | Wheat plant response rating (0 to 100 scale) ([6]; Postemergence, 31 g ai/ha) | Wheat plant response rating (0 to 100 scale) [6, 19] | Barnyardgrass plant response rating (0 to 100 scale) ([7]; Postemergence, 31 g ai/ha) | Barnyardgrass plant response rating (0 to 100 scale) [7, 19] | Ragweed plant response rating (0 to 100 scale) ([8]; Postemergence, 31 g ai/ha) | Ragweed plant response rating (0 to 100 scale) [8, 19] | Kochia plant response rating (0 to 100 scale) (kochia (Bassia scoparia) [9]; Postemergence, 31 g ai/ha) | Kochia plant response rating (0 to 100 scale) (kochia (Bassia scoparia) [9]; [19]) | Blackgrass plant response rating (0 to 100 scale) ([10]; Postemergence, 31 g ai/ha) | Blackgrass plant response rating (0 to 100 scale) [10, 19] | Ryegrass, Italian plant response rating (0 to 100 scale) ([11]; Postemergence, 31 g ai/ha) | Ryegrass, Italian plant response rating (0 to 100 scale) [11, 19] | Galium plant response rating (0 to 100 scale) ([12]; Postemergence, 31 g ai/ha) | Galium plant response rating (0 to 100 scale) [12, 19] | Pigweed plant response rating (0 to 100 scale) ([13]; Postemergence, 31 g ai/ha) | other results
CON=C(c1c(OC(C)=O)c(Cl)nn(C)c1=O)c1ccc(F)c2ccccc12 [Compound 190] | 30 | 0 | 0 | 20 | 60 | 0 | 0 | 30 | 20 | 10 | 60 | 10 | 20 | 0 | 20 | 10 | 20 | 90 | 100 | 30 | Barnyardgrass plant response rating (0 to 100 scale) ([1]; 125 g ai/ha): 50; Kochia plant response rating (0 to 100 scale) (kochia (Bassia scoparia) [2]; 125 g ai/ha): 0; Ryegrass, Italian plant response rating (0 to 100 scale) ([3]; 125 g ai/ha): 60; Pigweed plant response rating (0 to 100 scale) ([4]; 125 g ai/ha): 90; Foxtail, Giant plant response rating (0 to 100 scale) ([5]; 125 g ai/ha): 70; Pigweed plant response rating (0 to 100 scale) [13, 19]: 30; Foxtail, Giant plant response rating (0 to 100 scale) ([14]; Postemergence, 31 g ai/ha): 10; Foxtail, Giant plant response rating (0 to 100 scale) [14, 19]: 30; Corn plant response rating (0 to 100 scale) (corn (Zea mays); Postemergence, 31 g ai/ha): 0; Corn plant response rating (0 to 100 scale) (corn (Zea mays); [19]): 0; Plant response rating, Rice (Flood) (rice (Oryza sativa)): 0; Plant response rating, Sedge, Umbrella (Flood) [15]: 0; Plant response rating, Barnyardgrass (Flood) [16]: 0; Plant response rating, Ducksalad (Flood) [17]: 0
CO/N=C(/c1c(O)c(Cl)nn(C)c1=O)c1ccc(F)c2ccccc12 [Compound 207] | 20 | 0 | 40 | 50 | 30 | 0 | 0 | 20 | 60 | 30 | 90 | 60 | 70 | 30 | 20 | 20 | 80 | 90 | 100 | 50 | Barnyardgrass plant response rating (0 to 100 scale) [1, 20]: 80; Kochia plant response rating (0 to 100 scale) (kochia (Bassia scoparia) [2]; [20]): 60; Ryegrass, Italian plant response rating (0 to 100 scale) [3, 20]: 80; Pigweed plant response rating (0 to 100 scale) [4, 20]: 80; Foxtail, Giant plant response rating (0 to 100 scale) [5, 20]: 90; Pigweed plant response rating (0 to 100 scale) [13, 19]: 80; Foxtail, Giant plant response rating (0 to 100 scale) ([14]; Postemergence, 31 g ai/ha): 30; Foxtail, Giant plant response rating (0 to 100 scale) [14, 19]: 70; Corn plant response rating (0 to 100 scale) (corn (Zea mays); Postemergence, 31 g ai/ha): 30; Corn plant response rating (0 to 100 scale) (corn (Zea mays); [19]): 10; Plant response rating, Rice (Flood) (rice (Oryza sativa)): 0; Plant response rating, Sedge, Umbrella (Flood) [15]: 0; Plant response rating, Barnyardgrass (Flood) [16]: 0; Plant response rating, Ducksalad (Flood) [17]: 0
CCO/N=C(\c1cc(Cl)cc(Cl)c1Cl)c1c(O)c(C)nn(C)c1=O [Compound 186] | 40 | 0 | 40 | 50 | 100 | 20 | 70 | 30 | 70 | 50 | 90 | 50 | 50 | 10 | 20 | 80 | 100 | 90 | 100 | 20 | Barnyardgrass plant response rating (0 to 100 scale) ([1]; 125 g ai/ha): 90; Kochia plant response rating (0 to 100 scale) (kochia (Bassia scoparia) [2]; 125 g ai/ha): 0; Ryegrass, Italian plant response rating (0 to 100 scale) ([3]; 125 g ai/ha): 100; Pigweed plant response rating (0 to 100 scale) ([4]; 125 g ai/ha): 100; Foxtail, Giant plant response rating (0 to 100 scale) ([5]; 125 g ai/ha): 100; Pigweed plant response rating (0 to 100 scale) [13, 19]: 90; Foxtail, Giant plant response rating (0 to 100 scale) ([14]; Postemergence, 31 g ai/ha): 60; Foxtail, Giant plant response rating (0 to 100 scale) [14, 19]: 90; Corn plant response rating (0 to 100 scale) (corn (Zea mays); Postemergence, 31 g ai/ha): 0; Corn plant response rating (0 to 100 scale) (corn (Zea mays); [19]): 20; Plant response rating, Rice (Flood) (rice (Oryza sativa)): 0; Plant response rating, Sedge, Umbrella (Flood) [15]: 0; Plant response rating, Barnyardgrass (Flood) [16]: 0; Plant response rating, Ducksalad (Flood) [17]: 0
